In PubChem BioAssay (NCI):
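Where inhibition never reached the appropriate level, the endpoint shown equals the highest concentration tested. Otherwise, values were interpolated linearly from a five-concentration, 48-hour dose response in 96-well plates. TGI: total growth inhibition.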

Experiments:
Experiment in all cases: growth of human tumour cells (NCI), 48 h
A498 renal = test system: A498 renal
ACHN renal = test system: ACHN renal
K-562 leukemia = test system: K-562 leukemia
NCI-H460 lung = test system: NCI-H460 lung
OVCAR-3 ovarian = test system: OVCAR-3 ovarian
OVCAR-4 ovarian = test system: OVCAR-4 ovarian
OVCAR-5 ovarian = test system: OVCAR-5 ovarian
OVCAR-8 ovarian = test system: OVCAR-8 ovarian
HCC-2998 colon = test system: HCC-2998 colon
NCI/ADR-RES ovarian = test system: NCI/ADR-RES ovarian

| SMILES | TGI (A498 renal) | TGI (ACHN renal) | TGI (K-562 leukemia) | TGI (NCI-H460 lung) | TGI (OVCAR-3 ovarian) | TGI (OVCAR-4 ovarian) | TGI (OVCAR-5 ovarian) | TGI (OVCAR-8 ovarian) | TGI (HCC-2998 colon) | TGI (NCI/ADR-RES ovarian) |
| --- | --- | --- | --- | --- | --- | --- | --- | --- | --- | --- |
| O=C1c2ccccc2C(=O)N1Cc1ccccc1-c1c2nc(c(-c3ccccc3CN3C(=O)c4ccccc4C3=O)c3ccc([nH]3)c(-c3ccccc3CN3C(=O)c4ccccc4C3=O)c3nc(c(-c4ccccc4CN4C(=O)c5ccccc5C4=O)c4ccc1[nH]4)C=C3)C=C2 | > 100 µM | > 100 µM | > 100 µM | > 100 µM | > 100 µM | > 100 µM | > 100 µM | > 100 µM |  |  |
| CC(=O)C1=C(C)NC2C=CC=CN12 (stereo not given) | > 100 µM | > 100 µM | > 100 µM | > 100 µM | > 100 µM | > 100 µM | > 100 µM | > 100 µM | > 100 µM |  |
| Cc1[nH]c(=O)[nH]c(=O)c1/C=C/C(=O)O | > 1000 µM |  | > 1000 µM | > 1000 µM | > 1000 µM | > 1000 µM | > 1000 µM | > 1000 µM | > 1000 µM | > 1000 µM |
| CCCCCCCCCCCCCCCCCC(=O)O[C@H](COC(=O)CCCCCCCCCCC)COC(=O)CCCCCCCCCCCCCCC | > 100 µM | > 100 µM | > 100 µM | > 100 µM | > 100 µM | > 100 µM | > 100 µM | > 100 µM | > 100 µM |  |
| CN(C)Cc1cc(C(=O)/C=C/c2ccccc2Cl)cc(CN(C)C)c1O | 29.5 µM | 16.3 µM | 24.3 µM | 18.5 µM | 30.5 µM |  | 40.2 µM | 31.9 µM | 36.6 µM | 63.6 µM |
| O=C(CSc1nnc(Cc2ccccc2)o1)Nc1ccc([N+](=O)[O-])cc1 | > 100 µM | > 100 µM | > 100 µM | > 100 µM | > 100 µM | > 100 µM | > 100 µM | > 100 µM | > 100 µM |  |
| CC(=O)OC1CC2C(C)(C)OC(=O)CC(OC(C)=O)[C@]2(C)C2CCC3(C)C(=CCC3[C@H]3COC(=O)C3)[C@]12C (stereo not given in full) | > 100 µM | > 100 µM | > 100 µM | > 100 µM | > 100 µM | > 100 µM | > 100 µM | > 100 µM | > 100 µM |  |
| COc1cc(Nc2c3ccccc3nc3ccccc23)ccc1NS(C)(=O)=O | 19.6 µM | 14.8 µM | > 100 µM | 12 µM |  | 12.3 µM | 23 µM | 17.2 µM | 28.8 µM |  |
| c1cc2nnnn2nc1N1CCCC1 | > 100 µM | > 100 µM | > 100 µM | > 100 µM |  | > 100 µM | > 100 µM | > 100 µM | > 100 µM | > 100 µM |
| O=C1Nc2c(ccc(Cl)c2I)C1=O |  | 29 µM | 73.2 µM | 31.8 µM | 55.7 µM | 31.6 µM | 34.3 µM | 76.7 µM | 34.4 µM |  |
| CCOC(=O)c1ccc(N2C(=S)N(C(=O)c3ccccc3)C(=Nc3ccccc3)C2=Nc2ccccc2)cc1 |  | > 100 µM | > 100 µM | > 100 µM | > 100 µM |  | > 100 µM | > 100 µM | > 100 µM | > 100 µM |
| NC1=NS(=O)(=O)Nc2nc(-c3ccc([N+](=O)[O-])cc3)[nH]c21 |  | > 100 µM | > 100 µM | > 100 µM | > 100 µM | > 100 µM | > 100 µM | > 100 µM | > 100 µM |  |
| CC(=O)Nc1cc2c(s1)CCC1CC(=O)NN=C21 (stereo not given) |  | > 100 µM | > 100 µM | > 100 µM | > 100 µM | > 100 µM | > 100 µM | > 100 µM |  |  |
| CC(C)C(=O)/C=C/c1ccc(Br)cc1 | 28 µM | 25.4 µM | > 100 µM | 30.1 µM | 27.3 µM | 63.3 µM | 27.5 µM | 62.9 µM | 30.9 µM |  |
| NC1=NS(=O)(=O)Nc2nc(-c3ccc(Cl)cc3)c(-c3ccc(Cl)cc3)nc21 |  | > 100 µM | > 100 µM | > 100 µM | > 100 µM | > 100 µM | > 100 µM | > 100 µM | > 100 µM |  |
| COc1ccc(O)cc1 | > 100 µM | > 100 µM | > 100 µM | > 100 µM | > 100 µM | > 100 µM | > 100 µM | > 100 µM | > 100 µM |  |
| Nn1c(CCCCCCCCc2nnc(COc3ccc(Cl)cc3)n2N)nnc1COc1ccc(Cl)cc1 | > 100 µM | > 100 µM | > 100 µM | > 100 µM |  | > 100 µM | > 100 µM |  | > 100 µM | > 100 µM |
| Oc1cc(C2OCCCO2)cc(O)c1O | > 100 µM | > 100 µM | > 100 µM | > 100 µM | > 100 µM | > 100 µM | > 100 µM | > 100 µM | > 100 µM |  |
| CCCC(C)NC1=C(NC(C)=O)C(=O)c2ccccc2C1=O (stereo not given) |  | > 100 µM | > 100 µM | > 100 µM | > 100 µM | > 100 µM |  | > 100 µM | > 100 µM |  |
